Measurements as given in PMC11117929, “Benzamide Trimethoprim Derivatives as Human Dihydrofolate Reductase Inhibitors—Molecular Modeling and In Vitro Activity Study” (Biomedicines, 2024).

What was measured:
recombinant human DHFR = molecular target: T1, recombinant human DHFR (Homo sapiens, UniProt P00374); assay: Dihydrofolate reductase (DHFR) inhibition assay (assay kit); type: biochemical; details: mean of three assays ± S.D.
T1 construct: purchased Sigma Aldrich (St. Louis, MO, USA)
T1 sequence (P00374 1-187): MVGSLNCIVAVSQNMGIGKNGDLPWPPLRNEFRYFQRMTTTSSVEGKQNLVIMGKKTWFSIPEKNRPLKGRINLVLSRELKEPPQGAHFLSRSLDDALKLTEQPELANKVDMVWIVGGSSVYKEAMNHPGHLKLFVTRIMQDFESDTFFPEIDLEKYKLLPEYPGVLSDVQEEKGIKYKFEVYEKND
Excerpt: All reagents were purchased from Fluka (Sigma-Aldrich, Poznań, Poland), Merck (Darmstadt, Germany), or Alfa Aesar (Karlsruhe, Germany) and used without further purification. Dichloromethane (DCM) and dimethylformamide (DMF) were stored in 4 Å molecular sieves. The Dihydrofolate Reductase Assay Kit was purchased from Sigma Aldrich (St. Louis, MO, USA).
The inhibition of dihydrofolate reductase by the new TMP analogs, that is, determining their effect on the activity of recombinant human DHFR, was tested according to the instructions provided by the manufacturer and used previously.
In all experiments, the mean values for three assays ± standard deviations (S.D.) were calculated. The results were submitted to statistical analysis using the Student’s t-test. Differences were considered significant at p < 0.05.

[1] = molecular target: acetylcholinesterase (AChE); design: method as in PMID 37834347; details: cited from earlier work
β-secretase (BACE1) = molecular target: β-secretase (BACE1); design: method as in PMID 37834347; details: cited from earlier work
various cancer cells = system: various cancer cells; design: method as in PMID 36680987; details: cited from earlier work
plasmid DNA = details: ethidium bromide displacement, netropsin as standard; cited from earlier work

Structure (SMILES) | IC50 (recombinant human DHFR) [µM] | also measured
COc1cc(C(=O)Nc2cccc(NC(=O)c3cc(OC)c(OC)c(OC)c3)c2)cc(OC)c1OC [JW1] | 8.5 ± 0.06 | –
COc1cc(OC)cc(C(=O)Nc2cccc(NC(=O)c3cc(OC)cc(OC)c3)c2)c1 [JW2] | 10.15 ± 0.02 | –
COc1ccc(C(=O)Nc2cccc(NC(=O)c3ccc(OC)c(OC)c3)c2)cc1OC [JW3] | 9.83 ± 0.03 | –
COc1ccc(C(=O)Nc2cccc(NC(=O)c3ccc(OC)cc3)c2)cc1 [JW4] | 15.3 ± 0.04 | –
COc1cc(C(=O)Nc2ccc(NC(=O)c3cc(OC)c(OC)c(OC)c3)cc2)cc(OC)c1OC [JW5] | 4.8 ± 0.05 | –
COc1cc(OC)cc(C(=O)Nc2ccc(NC(=O)c3cc(OC)cc(OC)c3)cc2)c1 [JW6] | 4.72 ± 0.05 | –
COc1ccc(C(=O)Nc2ccc(NC(=O)c3ccc(OC)c(OC)c3)cc2)cc1OC [JW7] | 8.13 ± 0.06 | –
COc1ccc(C(=O)Nc2ccc(NC(=O)c3ccc(OC)cc3)cc2)cc1 [JW8] | 12.15 ± 0.02 | IC50 [1]: 0.056 µM; IC50 (β-secretase (BACE1)): 9.01 µM
COc1cc(C(=O)Nc2cccc([N+](=O)[O-])c2)cc(OC)c1OC [MB1] | 10.16 ± 0.01 | –
COc1cc(NC(=O)c2cc(OC)c(OC)c(OC)c2)cc(OC)c1OC [MB3] | 9.17 ± 0.01 | antiproliferative activity (various cancer cells): showed antiproliferative activity
COc1cc(CNC(=O)c2cc(OC)c(OC)c(OC)c2)cc(OC)c1OC [MB4] | 20.17 ± 0.03 | antiproliferative activity (various cancer cells): showed antiproliferative activity
COc1cc(Cc2cnc(N)nc2N)cc(OC)c1OC [TMP, trimethoprim] | – | binding to plasmid DNA (plasmid DNA): does not bind to the plasmid
